Results reported in patent publication US20210322509A1, “Methods for Reducing Perinatal Morbidity and / or Mortality” (CHU SAINTE-JUSTINE, priority 2016, published 2021).
Non-standard residues stand in square brackets, D forms with d. Residues, ends and D or L forms follow the SMILES beside them. ξ: configuration not given here. dThr(3ξ) = CC(O)[C@@H](N)C(=O)O

How the values were obtained:
[1] = test system: timed-pregnant CD-1 mice exposed to IL-1β; experiment: Intrauterine IL-1β-induced perinatal inflammation model: neonatal survival and fetal growth; format: in vivo; conditions: for neonatal survival at birth: pups from IL-1β-treated dams (1 μg i.u., G16.5), compound 1 1 mg/Kg/12 h or Kineret 4 mg/Kg/12 h s.c., relative to vehicle
Protocol: Timed-pregnant CD-1 mice were exposed to 1 μg of IL-1β at 16.5 days of gestation (G16.5). Compound 1 (Cmpd 1), Kineret or vehicle was injected subcutaneously in the neck skin 30 minutes before stimulation with IL-1β, and mice delivery was assessed every hour until term (G19-G19.5).
One-way ANOVA compared to IL-1β+Veh. ***p<0.001. Control (n=9), sham (n=7), IL-1β (n=26), IL-1β+Compound 1 (n=22), IL-1β+Kin (n=11).
(§1) Intrauterine […] perinatal inflammation model. Timed-pregnant CD-1 mice at 16.5 days of gestation were steadily anesthetized with an isoflurane mask. After body hair removal from the peritoneal area, a 1.5 cm-tall median incision was performed with surgical scissors in the lower abdominal wall. The lower segment of the right uterine horn was then exposed and 1 μg of IL-1β was injected between two fetal membranes with care of not entering the amniotic cavity. The abdominal muscle layer was sutured and the skin closed with clips. One hundred μL of Compound 1 (1 mg/Kg/12 h), Kineret® (4 mg/Kg/12 h) or vehicle (sterile water) was injected subcutaneously in the neck 30 minutes before stimulation with IL-1β (to allow distribution of drugs to target tissues). Mice delivery was assessed every hour until term (G19-G19.5). Immediately after delivery, neonatal survival was assessed. Some pregnant mice were sacrificed before birth (24 h after the surgery) to either 1) perform caesarean section and photograph fetuses; 2) collect amniotic fluids; and 3) collect placentas. Only tissues and fluids from gestational sacs closer to the cervical end of the uterus were collected to ensure proximity with the IL-1β injection site. Tissues and fluids were snap-frozen in liquid nitrogen and kept at −80° C. for subsequent RNA purification or protein quantification by ELISA.

[2] = test system: IL-1β, IL-6, IL-8 and PGF2α in amniotic fluid; experiment: ELISA of pro-inflammatory mediators in amniotic fluid 24 h after IL-1β injection; format: in vivo, mice; conditions: for levels of all pro-inflammatory mediators (IL-1β, IL-6, IL-8, PGF2α) in amniotic fluid: relative to vehicle
Protocol: FIGS. 2A to 2D show the levels of the pro-inflammatory mediators IL-1β (FIG. 2A), IL-6 (FIG. 2B), IL-8 (FIG. 2C) and PGF2a (FIG. 2D) in the amniotic fluid (AF) collected 24 h after IL-1β injection and treatment with vehicle, Compound 1 or Kineret, as assessed by ELISA. One-way ANOVA compared to IL-1β+Veh. **p<0.01, ***p<0.001. STATS: n=4; 4 gestational sacs from 2 animals in each groups.
as §1
Murine ELISA assays. […] The enzymatic reaction was stopped after 30 minutes and the plate was read at 450 nm, with wavelength correction set to 570 nm.

[3] = test system: lungs of pups from IL-1β-treated dams; experiment: Lung histology (alveoli count, architecture) at PT15; format: in vivo, mice; conditions: for damages to lung architecture caused by IL-1β: histology
Protocol: One-way ANOVA compared to IL-1β+Veh. *p<0.05, ***p<0.001. Sham (n=6 pups), IL-1β (n=3 pups), IL-1β+Compound 1 (n=6 pups), IL-1β+Kin (n=8 pups).
Histology. Intestines (from ileum to rectum) and lungs of post-term (PT) 15 mice were collected and fixed in 10% formalin during >48 h and were coated in paraffin. Samples were cut with a microtome (thickness=[…]) and mounted on lamella. Intestines were colored using hematoxylin-phloxine-saffron (HPS), whereas lungs were colored using H&E. Images were taken with a slidescanner (Axioscan®). Quantification of images was performed under blind evaluation of groups using Zen2 software.
The effect of gestational inflammation on the development of the exposed fetuses was studied. At post-term day (PT) 15, the pups from IL-1β-treated dams were sacrificed, and histological analysis of major organs known to be affected by prematurity/gestational inflammation (the lung, the intestines and the brain) was performed. For the lung, a blind count of alveoli was performed using ImageJ.

[4] = test system: IL-1β, IL-6, IL-8 and PGF2α in fetal brain tissue; experiment: ELISA of pro-inflammatory mediators in brain of neonates; format: in vivo, mice; conditions: neonates from IL-1β-treated dams
Protocol: FIGS. 8A to 8D show the levels of the pro-inflammatory mediators IL-1β (FIG. 8A), IL-6 (FIG. 8B), IL-8 (FIG. 8C) and PGF2a (FIG. 8D) in fetal brain tissue of neonates from sham and IL-1β-treated dams administered with vehicle, Compound 1 or Kineret, as assessed by ELISA. One-way ANOVA compared to IL-1β+Veh. *p<0.05, **p<0.01, ***p<0.001. n=4 pups in each groups.
Murine ELISA assays. The ELISA assay was performed using mouse Quantikine™ ELISA kits against IL-1β or IL-6 (R&D Systems®; #MLBOOC, M6000B), IL-8 and PGF2α (MyBioSource®; #MBS261967, #MBS264160) according to the manufacturer's instructions. Briefly, tissues (lungs, intestines and brains) collected at birth were homogenized in RIPA buffer containing proteases and 50 μL of either lung, intestine, or brain samples, recombinant mouse IL-1β, IL-6, IL-8 or PGF2α positive control or decreasing concentrations of a recombinant mouse IL-1β, IL-6, IL-8 or PGF2α standard were loaded into a 96-well plate pre-coated with a monoclonal anti-mouse IL-1β antibody and incubated for 2 hours at ambient temperature. Wells were washed 5 times and incubated with an enzyme-linked mouse polyclonal antibody specific to murine IL-1β for 2 hours. After another washing step, a substrate solution was added. The enzymatic reaction was stopped after 30 minutes and the plate was read at 450 nm, with wavelength correction set to 570 nm.

In the case of `CC(C)C[C@@H](NC(=O)[C@@H](CCC(=O)O)NC(=O)[C@H](NC(=O)[C@H](NC(=O)[C@@H](Cc1ccc(O)cc1)NC(=O)[C@H](N)CCCNC(=N)N)C(C)O)C(C)C)C(=O)N[C@H](C)C(N)=O` (stereo partly drawn) [compound 1] (H-[dR][dY][dThr(3ξ)][dV][dE][dL][dA]-NH2), the “IL-1β-induced growth arrest of fetuses” value ([1]; caesarean section of dams after 24 h exposition to intrauterine IL-1β) is reported as “prevents this detrimental effect”, the “neonatal survival at birth” value [1] is reported as “significantly increased neonatal survival” and the “reducing neonatal death, inflammation and inflammation-mediated damages in neonatal organs, compared with Kineret” value ([1]; summary statement) is reported as “significantly more effective”. The “levels of all pro-inflammatory mediators (IL-1β, IL-6, IL-8, PGF2α) in amniotic fluid” value [2] was “significant reduction”, the “damages to lung architecture caused by IL-1β” value [3] was “prevents the damages to lung architecture” and the “alveoli count per mm^2” value ([3]; pups from IL-1β-treated dams) was “completely restored the alveoli count”. The “number of alveoli per mm^2 compared with Kineret-treated group” value ([3]; pups from IL-1β-treated dams) was “significantly higher”, the “increased IL-1β and IL-6 levels in the brain” value [4] was “alleviated this effect” and the “increased IL-8 levels in the brain” value [4] was “alleviated this effect”.
For “Kineret: recombinant form of the human interleukin-1 receptor antagonist (IL-1Ra), purchased from Swedish Orphan Biovitrum AB”, the “neonatal survival at birth” value [1] was “but not Kineret®, significantly increased neonatal survival”, the “IL-8 levels in amniotic fluid, extent of effect” value ([2]; compared with compound 1) was “at a lower extent relative to compound 1” and the “levels of all pro-inflammatory mediators (IL-1β, IL-6, IL-8, PGF2α) in amniotic fluid” value [2] was “only had a significant effect on IL-8 levels”. For the same compound, the “damages to lung architecture caused by IL-1β” value [3] was “a more modest effect”, the “alveoli count per mm^2” value ([3]; pups from IL-1β-treated dams) was “only partially restored the alveoli count” and the “increased IL-1β and IL-6 levels in the brain” value [4] was “ineffective at significantly reducing”. The “increased IL-8 levels in the brain” value [4] was “although significant, was weaker than that obtained with compound 1”.
